Measurements reported in paper PMC9603373 (Microbiology Spectrum, 2022).
Marks after values point to notes of the source that are not given here.

Key:
[1] = system: daptomycin nonsusceptible Enterococcus faecium (NTUH688); test: Rat infective endocarditis model, DNSE; format: in vivo; settings: for blood_cfu / log_blood_cfu / log_veg_cfu / veg_cfu / veg_sterile: DNSE MIC 8, delay 48 h; for Bacterial load in blood / Rate of sterile vegetation / Bacterial load of vegetation: Wistar rat IE, DNSE MIC 8 mg/L, 48 h from inoculation to treatment; for Bacterial load in blood / Bacterial load of vegetation: mean (SD), SD; for Bacterial load in blood / Rate of sterile vegetation: n = 3; for Bacterial load of vegetation: sacrifice 24 h after last dose, n = 3, detection limit 2 log10 CFU/g; for veg_sterile: flag 1/0;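 for all read-outs here: Catheter-induced aortic valve endocarditis in male Wistar rats, treated 3 days, bacteria counted by plating vegetation and blood homogenates on brain heart infusion agar, control rats given phosphate-buffered saline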
Protocol: Approval for animal use was obtained from the National Taiwan University Institutional Animal Care and Use Committee before the commencement of the experiments. Endocarditis was induced in male Wistar rats weighing ~330 g by using previously developed methodologies with slight modifications ([46]). To expose the right carotid artery for the placement of an intravascular catheter, the animals were anesthetized with 1 μL/g of Zoletil 50 (1 mg/mL) plus Rompun (23.32 mg/mL). A sterile polyethylene catheter (Intramedic PE-10; Clay Adams, Parsippany, NJ, USA) was inserted through a small incision and advanced 4 cm into the left ventricle. The catheter was ligated and left in place for the duration of the experiment. 24 h after the catheter was placed across the aortic valve, the bacterial inoculum, which was presuspended in saline, and 1 mL of 10^8 CFU/mL of VRE were administered intravenously via the tail vein. We evaluated the actual inoculum based on the CFU count. The rats received antibiotic treatment at 24 h or 48 h after the bacterial inoculation.
The animals were treated for 3 days. A group of infected but phosphate-buffered saline-treated rats was used as a control. 24 h after the last treatment, the animals were sacrificed via anesthetic overdose. The aortic valve vegetation and 1 mL of blood were obtained aseptically from the sacrificed animals, weighed, and homogenized in 1 mL of phosphate-buffered saline. Serial dilutions of homogenized tissues were performed, and 100 μL of each dilution, including the undiluted sample, were plated on brain heart infusion agar to enumerate the bacteria. The animals were included in the final analysis only if they survived the entire therapy and if their catheters were found across the aortic valve in the left ventricle. The detection limit of the bacterial load of vegetation was 2 log10 CFU/g.

[2] = Single-dose pharmacokinetics in healthy rats; settings: for auc / cmax: rounded mean of the PK study, repeated per rat; for AUC0–24: healthy male Wistar rats, UHPLC-ESI-MS/MS, mean (SD), n = 3, SD; for AUC0–24 / conc: plasma
Protocol: The experiments were performed in triplicate. […] Plasma was collected via centrifugation, and the samples were stored at −80°C until analysis.
All of the UHPLC-ESI-MS/MS analyses were performed using an Agilent 1290 UHPLC system coupled with an Agilent 6460 triple quadrupole mass spectrometer (Agilent Technologies, Santa Clara, CA, USA).

[3] = 45 mg/kg sc, rat 1 of 3 (row order)
[4] = 45 mg/kg sc, rat 2 of 3 (row order)
[5] = 45 mg/kg sc, rat 3 of 3 (row order)
[6] = 90 mg/kg sc, rat 1 of 3 (row order)
[7] = 90 mg/kg sc, rat 2 of 3 (row order)
[8] = 90 mg/kg sc, rat 3 of 3 (row order)

Work on `CCCCCCCCCC(=O)N[C@@H](Cc1c[nH]c2ccccc12)C(=O)N[C@H](CC(N)=O)C(=O)N[C@@H](CC(=O)O)C(=O)N[C@@H]1C(=O)NCC(=O)N[C@@H](CCCN)C(=O)N[C@@H](CC(=O)O)C(=O)N[C@H](C)C(=O)N[C@@H](CC(=O)O)C(=O)NCC(=O)N[C@H](CO)C(=O)N[C@@H]([C@H](C)CC(=O)O)C(=O)N[C@@H](CC(=O)c2ccccc2N)C(=O)O[C@@H]1C` [daptomycin, Daptomycin] yielded a blood_cfu [1, 3] of 180, a log_blood_cfu [1, 3] of 2.26 and a log_veg_cfu [1, 3] of 7. For the same molecule, the veg_cfu [1, 3] was 5410000, the blood_cfu [1, 4] was 0 and the log_blood_cfu [1, 4] was 0. The log_veg_cfu [1, 4] was 7, the veg_cfu [1, 4] was 7620000 and the blood_cfu [1, 5] was 0. It also gave a log_blood_cfu [1, 5] of 0, a log_veg_cfu [1, 5] of 7 and a veg_cfu [1, 5] of 13600000. The blood_cfu [1, 6] was 0, the log_blood_cfu [1, 6] was 0 and the log_veg_cfu [1, 6] was 5. The veg_cfu [1, 6] was 80400, the blood_cfu [1, 7] was 0 and the log_blood_cfu [1, 7] was 0. For the same molecule, the log_veg_cfu [1, 7] was 5, the veg_cfu [1, 7] was 110000 and the blood_cfu [1, 8] was 0. For the same molecule, the log_blood_cfu [1, 8] was 0, the log_veg_cfu [1, 8] was 5.59 and the veg_cfu [1, 8] was 390000. For the same molecule, the “Bacterial load in blood” value ([1]; 45 mg/kg/day s.c. 3 days) was 0.75 (1.30) log10 CFU/mL, the “Rate of sterile vegetation” value ([1]; 45 mg/kg/day s.c. 3 days) was 0 and the “Bacterial load of vegetation” value ([1]; 45 mg/kg/day s.c. 3 days, 45 mg/kg/day) was 6.92 (0.20)^f log10 CFU/g. The “Bacterial load in blood” value ([1]; 90 mg/kg/day s.c. 3 days) was 0 (0) log10 CFU/mL, the “Rate of sterile vegetation” value ([1]; 90 mg/kg/day s.c. 3 days) was 0 and the “Bacterial load of vegetation” value ([1]; 90 mg/kg/day s.c. 3 days, 90 mg/kg/day) was 5.18 (0.36)^g^,^h log10 CFU/g. It also gave a veg_sterile [1, 3] of 0, a veg_sterile [1, 4] of 0 and a veg_sterile [1, 5] of 0. For the same molecule, the veg_sterile [1, 6] was 0, the veg_sterile [1, 7] was 0 and the veg_sterile [1, 8] was 0. For the same molecule, the auc ([2]; 12 mg/kg iv) was 228, the cmax ([2]; 12 mg/kg iv) was 106 and the auc ([2]; 45 mg/kg sc) was 987. For the same molecule, the cmax ([2]; 45 mg/kg sc) was 123, the auc ([2]; 90 mg/kg sc) was 2054 and the cmax ([2]; 90 mg/kg sc) was 179. For the same molecule, the “AUC0–24” value ([2]; single dose 12 mg/kg i.v.) was 228.2 (15.7) mg × h/L, the “AUC0–24” value ([2]; single dose 45 mg/kg s.c.) was 986.7 (185.6) mg × h/L and the “AUC0–24” value ([2]; single dose 90 mg/kg s.c.) was 2,053.6 (352.3) mg × h/L. It also gave a conc ([2]; single dose 12 mg/kg i.v., time 0 h, rat id 1) of 71, a conc ([2]; single dose 12 mg/kg i.v., time 0 h, rat id 2) of 76 and a conc ([2]; single dose 12 mg/kg i.v., time 0 h, rat id 3) of 171. For the same molecule, the conc ([2]; single dose 12 mg/kg i.v., time 0.5 h, rat id 1) was 45, the conc ([2]; single dose 12 mg/kg i.v., time 0.5 h, rat id 2) was 4 and the conc ([2]; single dose 12 mg/kg i.v., time 0.5 h, rat id 3) was 19. The conc ([2]; single dose 12 mg/kg i.v., time 1 h, rat id 1) was 70, the conc ([2]; single dose 12 mg/kg i.v., time 1 h, rat id 2) was 77 and the conc ([2]; single dose 12 mg/kg i.v., time 1 h, rat id 3) was 81. The conc ([2]; single dose 12 mg/kg i.v., time 2 h, rat id 1) was 47, the conc ([2]; single dose 12 mg/kg i.v., time 2 h, rat id 2) was 41 and the conc ([2]; single dose 12 mg/kg i.v., time 2 h, rat id 3) was 50. It also gave a conc ([2]; single dose 12 mg/kg i.v., time 3 h, rat id 1) of 31, a conc ([2]; single dose 12 mg/kg i.v., time 3 h, rat id 2) of 25 and a conc ([2]; single dose 12 mg/kg i.v., time 3 h, rat id 3) of 27. The conc ([2]; single dose 12 mg/kg i.v., time 4 h, rat id 1) was 21, the conc ([2]; single dose 12 mg/kg i.v., time 4 h, rat id 2) was 21 and the conc ([2]; single dose 12 mg/kg i.v., time 4 h, rat id 3) was 21. For the same molecule, the conc ([2]; single dose 12 mg/kg i.v., time 5 h, rat id 1) was 10, the conc ([2]; single dose 12 mg/kg i.v., time 5 h, rat id 2) was 22 and the conc ([2]; single dose 12 mg/kg i.v., time 5 h, rat id 3) was 12. The conc ([2]; single dose 12 mg/kg i.v., time 8 h, rat id 1) was 7, the conc ([2]; single dose 12 mg/kg i.v., time 8 h, rat id 2) was 3.76 and the conc ([2]; single dose 12 mg/kg i.v., time 8 h, rat id 3) was 2.45. The conc ([2]; single dose 12 mg/kg i.v., time 12 h, rat id 1) was 1.45, the conc ([2]; single dose 12 mg/kg i.v., time 12 h, rat id 2) was 0 and the conc ([2]; single dose 12 mg/kg i.v., time 12 h, rat id 3) was 1.2. It also gave a conc ([2]; single dose 12 mg/kg i.v., time 24 h, rat id 1) of 0, a conc ([2]; single dose 12 mg/kg i.v., time 24 h, rat id 2) of 0 and a conc ([2]; single dose 12 mg/kg i.v., time 24 h, rat id 3) of 0. It also gave a conc ([2]; single dose 45 mg/kg s.c., time 0 h, rat id 1) of 4, a conc ([2]; single dose 45 mg/kg s.c., time 0 h, rat id 2) of 3.71 and a conc ([2]; single dose 45 mg/kg s.c., time 0 h, rat id 3) of 2. For the same molecule, the conc ([2]; single dose 45 mg/kg s.c., time 0.5 h, rat id 1) was 16, the conc ([2]; single dose 45 mg/kg s.c., time 0.5 h, rat id 2) was 19 and the conc ([2]; single dose 45 mg/kg s.c., time 0.5 h, rat id 3) was 26. The conc ([2]; single dose 45 mg/kg s.c., time 1 h, rat id 1) was 55, the conc ([2]; single dose 45 mg/kg s.c., time 1 h, rat id 2) was 40 and the conc ([2]; single dose 45 mg/kg s.c., time 1 h, rat id 3) was 44. For the same molecule, the conc ([2]; single dose 45 mg/kg s.c., time 2 h, rat id 1) was 98, the conc ([2]; single dose 45 mg/kg s.c., time 2 h, rat id 2) was 64 and the conc ([2]; single dose 45 mg/kg s.c., time 2 h, rat id 3) was 72. The conc ([2]; single dose 45 mg/kg s.c., time 3 h, rat id 1) was 82, the conc ([2]; single dose 45 mg/kg s.c., time 3 h, rat id 2) was 109 and the conc ([2]; single dose 45 mg/kg s.c., time 3 h, rat id 3) was 142. For the same molecule, the conc ([2]; single dose 45 mg/kg s.c., time 4 h, rat id 1) was 117, the conc ([2]; single dose 45 mg/kg s.c., time 4 h, rat id 2) was 89 and the conc ([2]; single dose 45 mg/kg s.c., time 4 h, rat id 3) was 106. For the same molecule, the conc ([2]; single dose 45 mg/kg s.c., time 5 h, rat id 1) was 93, the conc ([2]; single dose 45 mg/kg s.c., time 5 h, rat id 2) was 95 and the conc ([2]; single dose 45 mg/kg s.c., time 5 h, rat id 3) was 84. It also gave a conc ([2]; single dose 45 mg/kg s.c., time 8 h, rat id 1) of 63, a conc ([2]; single dose 45 mg/kg s.c., time 8 h, rat id 2) of 68 and a conc ([2]; single dose 45 mg/kg s.c., time 8 h, rat id 3) of 88. The conc ([2]; single dose 45 mg/kg s.c., time 12 h, rat id 1) was 52, the conc ([2]; single dose 45 mg/kg s.c., time 12 h, rat id 2) was 37 and the conc ([2]; single dose 45 mg/kg s.c., time 12 h, rat id 3) was 29. It also gave a conc ([2]; single dose 45 mg/kg s.c., time 24 h, rat id 1) of 0.82, a conc ([2]; single dose 45 mg/kg s.c., time 24 h, rat id 2) of 0 and a conc ([2]; single dose 45 mg/kg s.c., time 24 h, rat id 3) of 0.52. The conc ([2]; single dose 90 mg/kg s.c., time 0 h, rat id 1) was 5, the conc ([2]; single dose 90 mg/kg s.c., time 0 h, rat id 2) was 7 and the conc ([2]; single dose 90 mg/kg s.c., time 0 h, rat id 3) was 4. The conc ([2]; single dose 90 mg/kg s.c., time 0.5 h, rat id 1) was 53, the conc ([2]; single dose 90 mg/kg s.c., time 0.5 h, rat id 2) was 42 and the conc ([2]; single dose 90 mg/kg s.c., time 0.5 h, rat id 3) was 51. It also gave a conc ([2]; single dose 90 mg/kg s.c., time 1 h, rat id 1) of 58, a conc ([2]; single dose 90 mg/kg s.c., time 1 h, rat id 2) of 80 and a conc ([2]; single dose 90 mg/kg s.c., time 1 h, rat id 3) of 57. It also gave a conc ([2]; single dose 90 mg/kg s.c., time 2 h, rat id 1) of 116, a conc ([2]; single dose 90 mg/kg s.c., time 2 h, rat id 2) of 143 and a conc ([2]; single dose 90 mg/kg s.c., time 2 h, rat id 3) of 129. The conc ([2]; single dose 90 mg/kg s.c., time 3 h, rat id 1) was 125, the conc ([2]; single dose 90 mg/kg s.c., time 3 h, rat id 2) was 175 and the conc ([2]; single dose 90 mg/kg s.c., time 3 h, rat id 3) was 200. For the same molecule, the conc ([2]; single dose 90 mg/kg s.c., time 4 h, rat id 1) was 161, the conc ([2]; single dose 90 mg/kg s.c., time 4 h, rat id 2) was 148 and the conc ([2]; single dose 90 mg/kg s.c., time 4 h, rat id 3) was 143. For the same molecule, the conc ([2]; single dose 90 mg/kg s.c., time 5 h, rat id 1) was 158, the conc ([2]; single dose 90 mg/kg s.c., time 5 h, rat id 2) was 168 and the conc ([2]; single dose 90 mg/kg s.c., time 5 h, rat id 3) was 179. For the same molecule, the conc ([2]; single dose 90 mg/kg s.c., time 8 h, rat id 1) was 128, the conc ([2]; single dose 90 mg/kg s.c., time 8 h, rat id 2) was 151 and the conc ([2]; single dose 90 mg/kg s.c., time 8 h, rat id 3) was 170. For the same molecule, the conc ([2]; single dose 90 mg/kg s.c., time 12 h, rat id 1) was 78, the conc ([2]; single dose 90 mg/kg s.c., time 12 h, rat id 2) was 116 and the conc ([2]; single dose 90 mg/kg s.c., time 12 h, rat id 3) was 84. The conc ([2]; single dose 90 mg/kg s.c., time 24 h, rat id 1) was 2, the conc ([2]; single dose 90 mg/kg s.c., time 24 h, rat id 2) was 6.44 and the conc ([2]; single dose 90 mg/kg s.c., time 24 h, rat id 3) was 3.35.
